# Results: patent publication US5451506A, “Oncostatin M and novel compositions having anti-neoplastic activity” (Oncogen Limited Partnership, priority 1993, dated 1995)
# Tests used:
# A375 cells [1] = experiment: Effect of acid, base and heat treatments on tumor growth inhibitory activity; assay type: cell-based, human
# Description: The assays were performed in 96 flat well plates (Costar 3596). Human melanoma cells (A375) (3×10^3 /100 μl) or cells from another cell line of interest were at an appropriate cell density used. Cells in 100 μl growth medium were placed in each well. Three hours later, 100 μl of test sample in growth medium was added to each well. Plates were incubated at 37° C. for 3 days. Then 25 μl (0.5 μCi) of a solution of ^3 H-thymidine (specific activity 27 μCi/μg) was added to each well for the final 6 hours of incubation. The cells were then transferred to glass filter strips using a multiwell harvester (PHD Cell Harvester, Cambridge Technology, Inc.). The filters were transferred to scintillation vials. Two ml of scintillation fluid (ScientiVerse II, Fisher Scientific Co.) was added and the samples counted in a scintillation counter to quantitate ^3 H-thymidine incorporation.
# U937 cells (RPMI 1640+5% FCS seeded at 7.5×10^5 cells/ml) were treated with TPA (10 ng/ml) for 3 days. The cells were then washed with medium (serum-free RPMI 1640) and incubated for 24 hr in serum-free (serum-free RPMI 1640) medium before collecting the supernatants. The supernatants were treated with 1N acetic acid or 1N ammonium hydroxide. They were then dialyzed against medium (serum-free RPMI 1640) and tested for their ability to inhibit ^3 H-thymidine incorporation into A375 cells using the assay as described in Example 1B
# A375 melanoma cells = experiment: Soft agar colony inhibition assay (TGI); assay type: cell-based, human; conditions: 11 days; for # Colonies: untreated 106
# Description: A 0.5 ml base layer of 0.5% agar (Agar Noble; Difco Laboratories, Detroit, Mich.) in growth medium was added to 24-well Costar tissue culture plates. One-half ml 0.3% agar in growth medium containing 1 to 2.5×10^3 A375 cells or other cell line of interest at an appropriate cell density, and various concentrations of the factor to be tested were overlaid on the base layer of agar. The plates were incubated at 37° C. in a humidified atmosphere of 5% CO2 in air and refed after 7 days by addition of 0.5 ml of 0.3% agar in growth medium containing the same concentration of the factor to be tested as used previously. Colonies were enumerated unfixed and unstained. The number of colonies with greater than 6 cells were scored.
# A375 cells were plated in soft agar, with or without the indicated GIA units of Oncostatin M (see Table 3), as described above in Example 1C. The factor used was from a C18^3 propanol column fraction with peak tumor growth inhibitory activity (GIA). The number of colonies was enumerated at 11 days.
# A375 cells [2] = experiment: Growth inhibition assay (A375 proliferation; synergy tests); assay type: cell-based, human; conditions: 1.8 U/ml, alone
# Description: A375 melanoma cells (4×10^3 cells/50 μl), Mv1Lu mink lung epithelial cells (3.5×10^3 cells/50 μl), or other cell line of interest at an appropriate cell density were subcultured for four hours on flat-bottomed 96-well tissue culture plates (Costar 3596, Cambridge, Mass.) in growth medium comprising Dulbecco's modified Eagle's medium (DMEM), supplemented with 10% heat-in-activated fetal bovine serum, and P/S. Test samples to be assayed for growth inhibition were diluted in growth medium and assayed in triplicate with 50 μl of the diluted sample added to each well. The cells were incubated for 72 hours at 37° C.
# The growth inhibitory activity of highly purified TGF-β1, recombinant gamma-interferon (rIFN-γ), and Oncostatin M on A375 cells was determined, and possible synergy between TGF-β1 and Oncostatin M, TGF-β1 and rIFN-γ, and Oncostatin M and rIFN-γ in inhibiting A375 proliferation was tested. […] is expressed in units of Mv1Lu growth inhibitory activity, rIFN-γ in units of anti-viral activity and Oncostatin M in units of A375 growth inhibitory activity. Concentrations of TGF-β1 (1-30 U/ml) and Oncostatin M (0.5-10 U/ml) were chosen which caused either no or only minimal growth inhibition when tested individually.
# Mouse L929 cells = experiment: Effect on mouse L929 cells; assay type: cell-based; conditions: mouse L929 cells, sensitive to tumor necrosis factor
# Description: The ability of PBL-derived Oncostatin M to affect replication of a variety of cells was also investigated. Mouse L929 cells were insenstive to PBL-derived Oncostatin M using up to 1000 GIA units/ml. Growth of human fibroblasts, WI26, was stimulated by treatment with 1000 GIA units/ml. Normal human T-lymphocyte proliferation at 72 hours post mitogenesis was not affected by up to 500 GIA units/ml.
substance,measurement,setting,value
Oncostatin M: Human polypeptide growth regulator produced by activated leukocytes; apparent molecular weight approximately 28 kD by PAGE,Resistance to inactivation by acid and base,"A375 cells [1]; 1N acetic acid and 1N ammonium hydroxide, dialyzed supernatant",substantially resistant to inactivation
same,Heat stability of activity,A375 cells [1]; 56° C. for 1 hr,retain its activity
same,Heat stability of activity,A375 cells [1]; 95° C. for 30 min,lose substantially all its activity
same,% Inhibition of Colony Formation,A375 melanoma cells; 27 GIA Units/Well,89%
same,# Colonies,A375 melanoma cells; 27 GIA Units/Well,11
same,% Inhibition of Colony Formation,A375 melanoma cells; 45 GIA Units/Well,69%
same,# Colonies,A375 melanoma cells; 45 GIA Units/Well,32
same,% Inhibition of Colony Formation,A375 melanoma cells; 83 GIA Units/Well,94%
same,# Colonies,A375 melanoma cells; 83 GIA Units/Well,6
same,% Inhibition of Colony Formation,A375 melanoma cells; 250 GIA Units/Well,96%
same,# Colonies,A375 melanoma cells; 250 GIA Units/Well,4
same,Inhibition of cell growth,A375 cells [2],12%
same,Cytotoxic activity,Mouse L929 cells,lacks cytotoxic activity
